The results in this text go back to ChEMBL document CHEMBL4020722, “Synthesis and evaluation of a series of pyridine and pyrimidine derivatives as type II c-Met inhibitors” (Bioorg Med Chem, 2017).

In one experiment the test system is EBC-1. Nature of the experiment: cells. As to conditions: Homo sapiens, EBC-1, 72 h.
For another experiment, the system named is HepG2. The experiment can be described thus: cells. As to conditions: Homo sapiens, HepG2, 72 h.
In experiment [1] the target is T1, Hepatocyte growth factor receptor (Homo sapiens, UniProt P08581). The experiment can be described thus: Inhibition of recombinant c-MET (unknown origin) using poly (Glu, Tyr) 4:1 as substrate after 45 mins by ELISA. (An ELISA detects its analyte on a solid surface through an enzyme-linked reagent.)
T1 sequence (P08581 whole entry): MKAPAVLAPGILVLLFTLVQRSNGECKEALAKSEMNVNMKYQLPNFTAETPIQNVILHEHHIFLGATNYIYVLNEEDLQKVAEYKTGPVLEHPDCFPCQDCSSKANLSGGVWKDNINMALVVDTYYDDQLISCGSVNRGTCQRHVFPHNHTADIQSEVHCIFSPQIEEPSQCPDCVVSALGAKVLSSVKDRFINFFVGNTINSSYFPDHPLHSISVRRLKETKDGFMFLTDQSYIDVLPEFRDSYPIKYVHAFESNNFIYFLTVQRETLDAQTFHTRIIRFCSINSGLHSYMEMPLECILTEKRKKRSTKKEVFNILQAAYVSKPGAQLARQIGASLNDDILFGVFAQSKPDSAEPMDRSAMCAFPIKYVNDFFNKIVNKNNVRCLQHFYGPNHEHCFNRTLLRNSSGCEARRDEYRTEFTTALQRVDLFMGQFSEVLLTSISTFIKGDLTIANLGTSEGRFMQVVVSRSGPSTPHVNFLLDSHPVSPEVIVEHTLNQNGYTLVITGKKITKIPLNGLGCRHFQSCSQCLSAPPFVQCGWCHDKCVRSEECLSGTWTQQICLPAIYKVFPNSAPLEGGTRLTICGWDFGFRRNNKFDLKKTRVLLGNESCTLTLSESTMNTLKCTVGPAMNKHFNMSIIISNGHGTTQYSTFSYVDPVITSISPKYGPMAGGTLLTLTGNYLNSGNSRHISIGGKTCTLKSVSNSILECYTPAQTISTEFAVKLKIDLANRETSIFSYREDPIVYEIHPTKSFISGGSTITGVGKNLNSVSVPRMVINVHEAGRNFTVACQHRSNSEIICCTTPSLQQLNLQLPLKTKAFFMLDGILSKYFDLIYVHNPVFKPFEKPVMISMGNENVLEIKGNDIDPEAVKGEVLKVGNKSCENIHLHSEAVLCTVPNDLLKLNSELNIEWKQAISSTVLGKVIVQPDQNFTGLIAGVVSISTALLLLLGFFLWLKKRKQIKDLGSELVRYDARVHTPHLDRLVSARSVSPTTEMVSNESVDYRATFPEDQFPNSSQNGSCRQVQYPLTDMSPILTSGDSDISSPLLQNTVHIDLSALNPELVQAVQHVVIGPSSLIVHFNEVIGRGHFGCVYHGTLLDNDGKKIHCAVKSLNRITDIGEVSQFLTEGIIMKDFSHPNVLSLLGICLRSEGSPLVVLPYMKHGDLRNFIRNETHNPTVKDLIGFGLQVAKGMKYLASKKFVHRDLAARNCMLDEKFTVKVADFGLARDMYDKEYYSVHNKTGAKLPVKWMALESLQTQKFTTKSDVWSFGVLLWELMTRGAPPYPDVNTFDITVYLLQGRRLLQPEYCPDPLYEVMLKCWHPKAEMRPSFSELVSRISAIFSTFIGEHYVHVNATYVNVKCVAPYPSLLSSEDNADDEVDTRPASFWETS
The target in experiment [2] is Platelet-derived growth factor receptor alpha (Homo sapiens, UniProt P16234). The experiment can be described thus: Inhibition of PDGFRalpha (unknown origin) by HTRF method.
Chain of Platelet-derived growth factor receptor alpha (P16234 whole entry): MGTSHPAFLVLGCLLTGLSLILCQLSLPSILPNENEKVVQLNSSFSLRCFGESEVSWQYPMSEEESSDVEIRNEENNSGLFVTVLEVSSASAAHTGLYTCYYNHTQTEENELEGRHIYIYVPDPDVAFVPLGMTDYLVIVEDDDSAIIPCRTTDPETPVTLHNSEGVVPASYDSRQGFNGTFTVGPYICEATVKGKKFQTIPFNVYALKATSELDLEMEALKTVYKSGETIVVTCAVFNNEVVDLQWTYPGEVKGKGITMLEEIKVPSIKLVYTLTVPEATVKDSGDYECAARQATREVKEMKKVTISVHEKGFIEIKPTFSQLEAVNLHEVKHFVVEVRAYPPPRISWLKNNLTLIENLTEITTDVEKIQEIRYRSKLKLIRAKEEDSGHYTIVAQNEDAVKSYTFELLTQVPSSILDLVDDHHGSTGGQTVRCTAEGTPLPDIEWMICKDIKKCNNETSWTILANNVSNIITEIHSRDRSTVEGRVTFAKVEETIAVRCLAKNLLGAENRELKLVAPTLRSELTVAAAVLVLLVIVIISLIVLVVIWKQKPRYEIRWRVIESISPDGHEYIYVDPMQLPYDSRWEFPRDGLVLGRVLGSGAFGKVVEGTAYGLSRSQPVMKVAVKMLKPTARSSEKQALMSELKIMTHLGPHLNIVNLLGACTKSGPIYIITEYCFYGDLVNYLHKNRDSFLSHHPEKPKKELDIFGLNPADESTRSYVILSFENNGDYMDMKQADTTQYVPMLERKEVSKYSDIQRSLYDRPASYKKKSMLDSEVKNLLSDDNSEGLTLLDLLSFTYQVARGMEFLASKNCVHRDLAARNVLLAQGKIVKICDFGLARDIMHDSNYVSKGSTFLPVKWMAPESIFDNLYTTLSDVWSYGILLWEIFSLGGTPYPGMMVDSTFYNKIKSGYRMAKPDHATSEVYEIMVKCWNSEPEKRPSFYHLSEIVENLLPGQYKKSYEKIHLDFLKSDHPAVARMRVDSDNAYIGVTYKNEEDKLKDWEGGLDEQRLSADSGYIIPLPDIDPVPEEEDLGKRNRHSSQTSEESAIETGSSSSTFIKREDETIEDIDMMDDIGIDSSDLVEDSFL
In experiment [3] the target is Epidermal growth factor receptor (Homo sapiens, UniProt P00533). The experiment can be described thus: Inhibition of EGFR (unknown origin) by HTRF method.
Chain of Epidermal growth factor receptor (P00533 whole entry): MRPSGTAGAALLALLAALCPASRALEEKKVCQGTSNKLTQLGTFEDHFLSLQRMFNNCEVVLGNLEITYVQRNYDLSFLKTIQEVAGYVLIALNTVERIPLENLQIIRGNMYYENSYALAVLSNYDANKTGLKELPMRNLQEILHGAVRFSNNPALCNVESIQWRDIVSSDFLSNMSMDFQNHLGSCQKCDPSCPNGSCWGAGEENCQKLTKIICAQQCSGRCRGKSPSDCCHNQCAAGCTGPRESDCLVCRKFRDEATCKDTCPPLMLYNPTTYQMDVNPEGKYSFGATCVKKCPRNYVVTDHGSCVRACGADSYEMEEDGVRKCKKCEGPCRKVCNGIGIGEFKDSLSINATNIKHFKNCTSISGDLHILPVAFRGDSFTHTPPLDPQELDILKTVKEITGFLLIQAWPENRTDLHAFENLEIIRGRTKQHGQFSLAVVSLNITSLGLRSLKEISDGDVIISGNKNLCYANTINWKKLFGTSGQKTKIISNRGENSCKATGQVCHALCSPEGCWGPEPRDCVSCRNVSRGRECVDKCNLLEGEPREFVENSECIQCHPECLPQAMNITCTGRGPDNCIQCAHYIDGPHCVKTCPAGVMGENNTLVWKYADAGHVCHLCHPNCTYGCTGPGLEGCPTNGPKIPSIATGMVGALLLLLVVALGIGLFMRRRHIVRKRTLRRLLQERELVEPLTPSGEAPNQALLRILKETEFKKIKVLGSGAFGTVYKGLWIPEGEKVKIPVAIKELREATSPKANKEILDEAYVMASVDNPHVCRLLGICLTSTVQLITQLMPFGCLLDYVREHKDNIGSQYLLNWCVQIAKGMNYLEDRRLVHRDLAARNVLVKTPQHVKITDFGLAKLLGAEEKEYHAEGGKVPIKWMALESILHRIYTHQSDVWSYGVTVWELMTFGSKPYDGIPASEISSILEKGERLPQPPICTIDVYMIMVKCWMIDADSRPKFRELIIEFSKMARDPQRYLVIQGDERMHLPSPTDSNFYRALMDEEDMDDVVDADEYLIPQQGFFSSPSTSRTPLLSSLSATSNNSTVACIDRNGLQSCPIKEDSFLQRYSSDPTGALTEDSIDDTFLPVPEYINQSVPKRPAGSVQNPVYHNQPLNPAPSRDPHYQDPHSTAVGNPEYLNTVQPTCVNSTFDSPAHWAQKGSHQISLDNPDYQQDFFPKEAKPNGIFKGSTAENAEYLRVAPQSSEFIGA
Experiment [4] addresses T2, Receptor-type tyrosine-protein kinase FLT3 (Homo sapiens, UniProt P36888).
T2 sequence (P36888 whole entry): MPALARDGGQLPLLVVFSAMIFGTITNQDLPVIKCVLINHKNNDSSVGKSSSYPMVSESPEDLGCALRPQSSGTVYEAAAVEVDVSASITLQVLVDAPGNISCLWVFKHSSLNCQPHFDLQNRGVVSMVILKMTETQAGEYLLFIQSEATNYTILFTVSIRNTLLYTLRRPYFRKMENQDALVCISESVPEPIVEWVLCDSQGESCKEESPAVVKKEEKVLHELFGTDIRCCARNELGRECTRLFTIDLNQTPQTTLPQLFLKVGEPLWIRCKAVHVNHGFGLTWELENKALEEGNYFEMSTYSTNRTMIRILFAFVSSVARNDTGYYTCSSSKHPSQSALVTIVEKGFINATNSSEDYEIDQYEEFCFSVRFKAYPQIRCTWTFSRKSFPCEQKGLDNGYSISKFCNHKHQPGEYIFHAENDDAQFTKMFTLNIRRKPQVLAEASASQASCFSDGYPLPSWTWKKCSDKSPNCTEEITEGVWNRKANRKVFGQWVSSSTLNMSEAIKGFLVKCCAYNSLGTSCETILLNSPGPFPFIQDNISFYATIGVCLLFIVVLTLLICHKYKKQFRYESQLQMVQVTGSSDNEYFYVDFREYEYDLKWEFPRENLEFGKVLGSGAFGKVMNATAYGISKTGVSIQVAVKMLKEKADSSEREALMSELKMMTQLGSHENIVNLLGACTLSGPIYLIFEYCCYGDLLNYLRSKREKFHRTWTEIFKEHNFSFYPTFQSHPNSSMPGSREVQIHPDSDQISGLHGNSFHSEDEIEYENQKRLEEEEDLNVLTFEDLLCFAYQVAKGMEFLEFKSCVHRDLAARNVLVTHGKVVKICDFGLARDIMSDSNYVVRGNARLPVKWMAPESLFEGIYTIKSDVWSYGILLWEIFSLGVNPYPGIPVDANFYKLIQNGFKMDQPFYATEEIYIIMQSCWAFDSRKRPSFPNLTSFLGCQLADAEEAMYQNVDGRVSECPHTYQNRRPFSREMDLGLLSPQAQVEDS
Nature of the experiment: Inhibition of FLT3 (unknown origin) by HTRF method. A general note: TR-FRET usually uses a lanthanide donor and a delayed reading to cut background.

Experiment [5] concerns the target Vascular endothelial growth factor receptor 2 (Homo sapiens, UniProt P35968).
Experiment [6] addresses Proto-oncogene tyrosine-protein kinase receptor Ret (Homo sapiens, UniProt P07949). Nature of the experiment: Inhibition of RET (unknown origin) by HTRF method.
For experiment [7], the target named is Mast/stem cell growth factor receptor Kit (Homo sapiens, UniProt P10721). The experiment can be described thus: Inhibition of KIT (unknown origin) by HTRF method.
Chain of Mast/stem cell growth factor receptor Kit (P10721 whole entry): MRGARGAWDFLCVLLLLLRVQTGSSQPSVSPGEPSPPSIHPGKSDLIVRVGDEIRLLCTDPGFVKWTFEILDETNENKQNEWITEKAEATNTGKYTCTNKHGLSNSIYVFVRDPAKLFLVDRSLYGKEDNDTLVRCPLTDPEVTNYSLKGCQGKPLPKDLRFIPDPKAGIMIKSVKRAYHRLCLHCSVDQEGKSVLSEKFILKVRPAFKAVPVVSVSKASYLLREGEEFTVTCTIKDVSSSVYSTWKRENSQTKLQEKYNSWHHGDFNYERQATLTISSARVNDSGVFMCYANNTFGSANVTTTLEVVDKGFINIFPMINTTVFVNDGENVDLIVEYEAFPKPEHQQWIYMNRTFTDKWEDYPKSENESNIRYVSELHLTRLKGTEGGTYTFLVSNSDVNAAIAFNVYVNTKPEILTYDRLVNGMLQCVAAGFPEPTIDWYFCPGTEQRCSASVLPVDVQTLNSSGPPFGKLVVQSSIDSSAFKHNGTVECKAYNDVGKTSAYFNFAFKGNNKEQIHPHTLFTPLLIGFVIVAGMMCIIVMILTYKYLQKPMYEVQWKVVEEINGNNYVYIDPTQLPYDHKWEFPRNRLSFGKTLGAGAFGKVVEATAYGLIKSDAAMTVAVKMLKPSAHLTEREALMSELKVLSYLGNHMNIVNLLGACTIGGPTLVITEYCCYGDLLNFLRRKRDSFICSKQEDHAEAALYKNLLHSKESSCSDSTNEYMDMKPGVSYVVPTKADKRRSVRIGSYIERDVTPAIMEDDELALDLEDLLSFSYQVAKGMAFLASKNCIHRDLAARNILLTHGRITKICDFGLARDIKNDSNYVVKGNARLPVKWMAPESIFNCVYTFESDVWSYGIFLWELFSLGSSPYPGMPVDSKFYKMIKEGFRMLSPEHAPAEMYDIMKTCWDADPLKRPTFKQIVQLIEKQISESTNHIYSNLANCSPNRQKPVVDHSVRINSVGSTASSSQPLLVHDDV
Experiment [8] addresses T1, Hepatocyte growth factor receptor. As to conditions: 0.1 mM.

The IC50 is the point on the concentration scale where inhibition reaches its midpoint. As for `Nc1cc(Oc2ccc(NC(=O)C3(C(=O)Nc4ccc(F)cc4)CC3)cc2F)ncn1`, the IC50 in the experiment with EBC-1 and with HepG2 was above 1000 nM throughout.

As for `COc1cccc2c1C(=O)c1c(O)c3c(c(O)c1C2=O)C[C@@](O)(C(=O)CO)C[C@@H]3O[C@H]1C[C@H](N)[C@H](O)[C@H](C)O1` [DOXORUBICIN], the 50% inhibitory concentration (IC50) was found to be 305 nM in the experiment on EBC-1 and 98.7 nM in the experiment on HepG2.

For `COc1ccc(NC(=O)C2(C(=O)Nc3ccc(Oc4cc(N)ncn4)c(F)c3)CC2)cc1`, in experiment [1], the half-maximal inhibitory concentration (IC50) is above 10000 nM.

For `Nc1cc(Oc2ccc(NC(=O)C3(C(=O)NCc4ccc(F)cc4)CC3)cc2F)ncn1`, the IC50 in [1] was above 10000 nM.

Turning to `Nc1nccc(Oc2ccc(NC(=O)C3(C(=O)NCc4ccc(F)cc4)CC3)cc2F)n1`, in experiment [1], the IC50 was above 10000 nM.

Take `Nc1cc(Oc2ccc(NC(=O)C3(C(=O)Nc4ccc(Cl)cc4)CC3)cc2F)ncn1`: the IC50 in the experiment with EBC-1 and in the experiment on HepG2 was above 1000 nM each time.

For `Nc1nccc(Oc2ccc(NC(=O)C3(C(=O)Nc4ccc(F)cc4)CC3)cc2F)n1`, the concentration for half-maximal inhibition (IC50) in the experiment with EBC-1 and in the experiment on HepG2 was above 1000 nM in each case.

For `COc1cc2nccc(Oc3ccc(NC(=O)C4(C(=O)Nc5ccc(F)cc5)CC4)cc3)c2cc1OC` [CABOZANTINIB], the IC50 in experiment [2] was above 10000 nM.

With `Nc1nccc(Oc2ccc(NC(=O)C3(C(=O)Nc4ccc(Cl)cc4)CC3)cc2F)c1Cl`, the results for the IC50 with EBC-1 and in the experiment with HepG2 were 967 nM and above 1000 nM, respectively.

Usually inhibition stands for the change of the read-out against control, counted positive when it falls. Higher therefore signals a response far below the control. As for `Nc1nccc(Oc2ccc(NC(=O)C3(C(=O)Nc4ccc(F)cc4)CC3)cc2F)c1Cl`, the IC50 in experiment [1] is 17 nM; in experiment [2], 172 nM; in experiment [3] it was above 1000 nM; in the experiment on EBC-1, 127 nM; in experiment [4], 2220 nM; in experiment [5], 55 nM. Further, the half-maximal inhibitory concentration (IC50) is 387 nM in experiment [6], above 1000 nM in the experiment on HepG2 and 279 nM in [7]. For the same compound, in [8], the inhibition turned out to be 100%.

In the case of `Nc1nccc(Oc2ccc(NC(=O)C3(C(=O)Nc4cccc(F)c4)CC3)cc2F)c1Cl`, the IC50 in the experiment on EBC-1 and in the experiment with HepG2 was above 1000 nM in each case.

Turning to `CCOc1ccn(-c2ccc(F)cc2)c(=O)c1C(=O)Nc1ccc(Oc2ccnc(N)c2Cl)c(F)c1` [BMS-777607], the 50% inhibitory concentration (IC50) is 12 nM in [1], 28 nM in [2] and 162 nM in the experiment with EBC-1.
